In ChEMBL document CHEMBL1909046, “DrugMatrix in vitro pharmacology data”:

What was measured:
[1] = target: T1, Amine oxidase [flavin-containing] A (Homo sapiens, UniProt P21397); assay: DRUGMATRIX: Monoamine Oxidase MAO-A enzyme inhibition (substrate: Kynuramine); parameters: species or system BTI-TN-5B1-4; conditions: Not Active = under 50% inhibition at 10 µM
T1 sequence (P21397 whole entry): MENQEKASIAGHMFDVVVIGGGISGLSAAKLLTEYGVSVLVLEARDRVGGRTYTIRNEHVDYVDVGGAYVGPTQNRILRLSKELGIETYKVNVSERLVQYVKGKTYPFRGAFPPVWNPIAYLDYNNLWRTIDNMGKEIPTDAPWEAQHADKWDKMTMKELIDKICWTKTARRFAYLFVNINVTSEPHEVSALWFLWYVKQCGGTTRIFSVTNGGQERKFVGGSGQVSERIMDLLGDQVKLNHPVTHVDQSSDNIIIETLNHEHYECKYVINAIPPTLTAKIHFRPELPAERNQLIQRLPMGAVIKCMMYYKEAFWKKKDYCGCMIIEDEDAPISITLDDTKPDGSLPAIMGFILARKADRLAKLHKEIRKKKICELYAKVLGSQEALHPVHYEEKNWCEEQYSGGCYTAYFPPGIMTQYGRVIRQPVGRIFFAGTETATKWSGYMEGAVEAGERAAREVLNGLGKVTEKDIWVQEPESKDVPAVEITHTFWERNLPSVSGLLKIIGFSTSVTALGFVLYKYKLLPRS

[2] = target: Mitogen-activated protein kinase 14 (Homo sapiens, UniProt Q16539); parameters: species or system Escherichia coli;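 also: inhibition of p38alpha enzyme activity in a biochemical kinase assay, with myelin basic protein serving as substrate; in other assays of this panel Not Active means under 50% inhibition at 10 µM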
Mitogen-activated protein kinase 14, sequence (Q16539 whole entry): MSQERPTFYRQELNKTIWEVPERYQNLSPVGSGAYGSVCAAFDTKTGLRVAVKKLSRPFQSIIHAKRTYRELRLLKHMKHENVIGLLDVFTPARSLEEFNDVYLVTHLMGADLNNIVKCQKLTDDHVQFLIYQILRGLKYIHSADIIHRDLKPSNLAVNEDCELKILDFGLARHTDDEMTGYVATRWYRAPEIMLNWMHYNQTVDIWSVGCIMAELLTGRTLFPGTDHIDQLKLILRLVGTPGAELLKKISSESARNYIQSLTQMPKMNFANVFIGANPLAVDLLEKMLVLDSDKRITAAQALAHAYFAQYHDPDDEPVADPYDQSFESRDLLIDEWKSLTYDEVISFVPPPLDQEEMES

[3] = DRUGMATRIX: Purinergic P2X radioligand binding (ligand: [3H] alpha, beta-Methylene-ATP); type: cell membranes, Oryctolagus cuniculus, New Zealand albino, Urinary bladder, Membrane; conditions: Not Active = under 50% inhibition at 10 µM
B2 bradykinin receptor = target: T2, B2 bradykinin receptor (Homo sapiens, UniProt P30411); type: cell membranes, Membrane; conditions: chem-1; also: in other assays of this panel Not Active means under 50% inhibition at 10 µM
T2 sequence (P30411 whole entry): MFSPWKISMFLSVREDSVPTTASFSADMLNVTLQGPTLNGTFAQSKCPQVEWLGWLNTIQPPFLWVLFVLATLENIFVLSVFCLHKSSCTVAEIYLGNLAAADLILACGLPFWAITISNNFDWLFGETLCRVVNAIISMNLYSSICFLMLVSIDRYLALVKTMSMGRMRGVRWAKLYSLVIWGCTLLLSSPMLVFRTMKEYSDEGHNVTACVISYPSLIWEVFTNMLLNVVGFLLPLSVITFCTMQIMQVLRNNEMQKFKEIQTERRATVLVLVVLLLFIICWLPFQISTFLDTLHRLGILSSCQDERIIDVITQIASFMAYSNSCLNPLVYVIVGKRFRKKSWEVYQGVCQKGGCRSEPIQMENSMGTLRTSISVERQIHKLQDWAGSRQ

[4] = target: T3, Muscarinic acetylcholine receptor M5 (Homo sapiens, UniProt P08912); type: cell membranes, CHO-K1, Membrane; also: in other assays of this panel Not Active means under 50% inhibition at 10 µM
T3 sequence (P08912 whole entry): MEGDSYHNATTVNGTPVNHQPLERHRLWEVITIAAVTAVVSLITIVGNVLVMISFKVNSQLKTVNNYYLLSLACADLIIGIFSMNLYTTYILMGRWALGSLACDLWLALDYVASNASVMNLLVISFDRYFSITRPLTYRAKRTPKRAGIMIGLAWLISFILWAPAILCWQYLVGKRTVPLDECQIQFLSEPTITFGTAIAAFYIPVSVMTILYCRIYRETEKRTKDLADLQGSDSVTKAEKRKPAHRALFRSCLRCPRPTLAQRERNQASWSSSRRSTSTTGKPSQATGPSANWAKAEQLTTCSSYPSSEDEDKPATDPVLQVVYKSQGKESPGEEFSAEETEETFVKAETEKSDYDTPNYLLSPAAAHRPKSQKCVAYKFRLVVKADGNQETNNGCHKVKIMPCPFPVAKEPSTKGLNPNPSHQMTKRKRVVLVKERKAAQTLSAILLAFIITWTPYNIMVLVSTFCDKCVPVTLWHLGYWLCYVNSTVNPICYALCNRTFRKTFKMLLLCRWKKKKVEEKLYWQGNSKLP

[5] = DRUGMATRIX: Nicotinic Acetylcholine radioligand binding (ligand: [125I] Epibatidine); type: cell membranes, Membrane; conditions: imr-32; Not Active = under 50% inhibition at 10 µM
Thromboxane-A synthase = target: T4, Thromboxane-A synthase (Homo sapiens, UniProt P24557); assay: biochemical; type: tissue-based, Platelet; conditions: platelet;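 also: enzyme inhibition assay with PGH2 supplied as substrate; in other assays of this panel Not Active means under 50% inhibition at 10 µM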
T4 sequence (P24557 whole entry): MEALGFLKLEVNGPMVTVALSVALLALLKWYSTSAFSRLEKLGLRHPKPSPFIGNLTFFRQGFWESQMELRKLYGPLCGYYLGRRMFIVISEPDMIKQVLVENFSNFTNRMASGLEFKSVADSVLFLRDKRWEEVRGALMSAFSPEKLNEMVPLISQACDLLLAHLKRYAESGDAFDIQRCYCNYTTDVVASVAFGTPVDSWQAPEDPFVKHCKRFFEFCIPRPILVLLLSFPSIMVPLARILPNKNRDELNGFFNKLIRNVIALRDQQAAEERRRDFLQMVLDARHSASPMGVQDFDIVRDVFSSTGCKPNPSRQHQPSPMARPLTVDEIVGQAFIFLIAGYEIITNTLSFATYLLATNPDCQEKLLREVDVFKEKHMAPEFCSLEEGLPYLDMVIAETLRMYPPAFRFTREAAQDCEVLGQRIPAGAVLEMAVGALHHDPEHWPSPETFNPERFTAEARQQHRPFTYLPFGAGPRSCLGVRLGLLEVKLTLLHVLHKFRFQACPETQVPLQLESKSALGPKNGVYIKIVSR

Row | SMILES | IC50 ([1]; bti-tn-5b1-4) | IC50 [2] | IC50 [3] | Ki [3] | IC50 (B2 bradykinin receptor) | IC50 ([4]; cho-k1) | IC50 [5] | Ki [5] | IC50 (Thromboxane-A synthase) | IC50 ([1]; read-out: IC50) [nM] | IC50 ([4]; read-out: IC50) [nM] | Ki ([4]; read-out: Ki) [nM]
1 | COc1cc(OC)c(C(=O)CCCN2CCCC2)c(OC)c1 [BUFLOMEDIL] | Not Active | Not Active | Not Active | Not Active | Not Active | Not Active | Not Active | Not Active | Not Active | – | – | –
2 | Cn1c(=O)c2c(ncn2C)n(C)c1=O [CAFFEINE] | Not Active | Not Active | Not Active | Not Active | Not Active | Not Active | Not Active | Not Active | Not Active | – | – | –
3 | ClC(Cl)(Cl)Cl [CARBON TETRACHLORIDE] | Not Active | Not Active | Not Active | Not Active | Not Active | Not Active | Not Active | Not Active | Not Active | – | – | –
4 | CO/N=C(\C(=O)N[C@@H]1C(=O)N2C(C(=O)O)=C(COC(C)=O)CS[C@H]12)c1csc(N)n1 [CEFOTAXIME] | Not Active | Not Active | Not Active | Not Active | Not Active | Not Active | Not Active | Not Active | Not Active | – | – | –
5 | CNC1=Nc2ccc(Cl)cc2C(c2ccccc2)=[N+]([O-])C1 [CHLORDIAZEPOXIDE] | Not Active | Not Active | Not Active | Not Active | Not Active | Not Active | Not Active | Not Active | Not Active | – | – | –
6 | Cc1cc(O)cc(C)c1Cl [CHLOROXYLENOL] | – | Not Active | Not Active | Not Active | Not Active | Not Active | Not Active | Not Active | Not Active | 1830 | – | –
7 | CCCNC(=O)NS(=O)(=O)c1ccc(Cl)cc1 [CHLORPROPAMIDE] | Not Active | Not Active | Not Active | Not Active | Not Active | Not Active | Not Active | Not Active | Not Active | – | – | –
8 | NS(=O)(=O)c1cc(C2(O)NC(=O)c3ccccc32)ccc1Cl (stereo not given) [CHLORTHALIDONE] | Not Active | Not Active | Not Active | Not Active | Not Active | Not Active | Not Active | Not Active | Not Active | – | – | –
9 | O=C(O)CC(O)(CC(=O)O)C(=O)O [CITRIC ACID] | Not Active | Not Active | Not Active | Not Active | Not Active | Not Active | Not Active | Not Active | Not Active | – | – | –
10 | CC(C)NCC(O)c1ccccc1Cl (stereo not given) [CLORPRENALINE] | Not Active | Not Active | Not Active | Not Active | Not Active | Not Active | Not Active | Not Active | Not Active | – | – | –
11 | CN1CCN(C(c2ccccc2)c2ccccc2)CC1 [CYCLIZINE] | Not Active | Not Active | Not Active | Not Active | Not Active | – | Not Active | Not Active | Not Active | – | 633 | 455
12 | CN1C[C@@H]2C[C@H]1CN2c1cc2c(cc1F)c(=O)c(C(=O)O)cn2C1CC1 [DANOFLOXACIN] | Not Active | Not Active | Not Active | Not Active | Not Active | Not Active | Not Active | Not Active | Not Active | – | – | –
13 | COc1cccc2c1C(=O)c1c(O)c3c(c(O)c1C2=O)C[C@@](O)(C(C)=O)C[C@@H]3O[C@H]1C[C@H](N)[C@H](O)[C@H](C)O1 [DAUNORUBICIN] | Not Active | Not Active | Not Active | Not Active | Not Active | Not Active | Not Active | Not Active | Not Active | – | – | –
14 | O=C(O)c1cc(-c2ccc(F)cc2F)ccc1O [DIFLUNISAL] | Not Active | Not Active | Not Active | Not Active | Not Active | Not Active | Not Active | Not Active | Not Active | – | – | –
15 | C[S+](C)[O-] [DIMETHYL SULFOXIDE] | Not Active | Not Active | Not Active | Not Active | Not Active | Not Active | Not Active | Not Active | Not Active | – | – | –
16 | CC1=NN(c2ccccc2)C(=O)C1 [EDARAVONE] | Not Active | Not Active | Not Active | Not Active | Not Active | Not Active | Not Active | Not Active | Not Active | – | – | –
17 | CC(C)C[C@H]1C(=O)N2CCC[C@H]2[C@]2(O)O[C@](NC(=O)[C@@H]3C=C4c5cccc6[nH]cc(c56)C[C@H]4N(C)C3)(C(C)C)C(=O)N12 [ERGOCRYPTINE] | Not Active | Not Active | Not Active | Not Active | Not Active | Not Active | Not Active | Not Active | Not Active | – | – | –
18 | C[C@]12CC[C@@H]3c4ccc(O)cc4CC[C@H]3[C@@H]1C[C@@H](O)[C@@H]2O [ESTRIOL] | Not Active | Not Active | Not Active | Not Active | Not Active | Not Active | Not Active | Not Active | Not Active | – | – | –
19 | C#C[C@]1(O)CC[C@H]2[C@@H]3CCC4=CC(=O)CC[C@]4(C)[C@H]3CC[C@@]21C [ETHISTERONE] | Not Active | Not Active | Not Active | Not Active | Not Active | Not Active | Not Active | Not Active | Not Active | – | – | –
20 | CC(O)(P(=O)(O)O)P(=O)(O)O [ETIDRONIC ACID] | Not Active | Not Active | Not Active | Not Active | Not Active | Not Active | Not Active | Not Active | Not Active | – | – | –
21 | CC(C)(C(=O)O)c1ccc(C(O)CCCN2CCC(C(O)(c3ccccc3)c3ccccc3)CC2)cc1 (stereo not given) [FEXOFENADINE] | Not Active | Not Active | Not Active | Not Active | Not Active | Not Active | Not Active | Not Active | Not Active | – | – | –
